Legend:
Lewis lung carcinoma = test: Tumour growth and metastases of Lewis lung carcinoma in mice; assay type: in vivo; details: 5 injections
Experimental: Female C57B16 mice (10 mice/group, 18-22 g body weight) were i.m. injected into the left hind leg with 0.1 ml of a tumour cell suspension of Lewis lung carcinoma (day 0).
Nine groups of animals were investigated. The test compounds were s.c. administered as follows: physiological saline: once daily for eleven days starting from day 0 up to day 10. DFO: 0.5 ml in distilled water in a dose of 10 and 30 mg/kg once daily for eleven days, on day 0 up to day 10 after tumour inocculation. 10-EDAM: 0.5 ml in distilled water in a dose of 3 and 6 mg/kg, once daily on days 1, 3, 5, 7 and 9 after tumour inocculation.
Both hind legs were removed from the body, weighed, and the difference between the tumour bearing and the tumour free leg was taken as the tumour weight of one idividual mouse.
Lungs were filled up with Pelikan-ink via the trachea, fixed in Fekete-solution and metastases (white spot on black back-ground) on the lung surface were counted microscopically.

HL-60 cells [1] = test: HL-60 colony growth with cytostatic compounds alone or with 1 µM DFO; assay type: cell-based, human; details: cytostatic alone, various concentrations
Experimental: HL-60 cells (10⁴/ml) were plated in 0.8 % methycellulose in RPMI-1640 medium supplemented with 20 % heat inactivated (56°C, 30 min) fetal calf serum at a final volume of 1 ml/culture plate. Cultures were set up in duplicates and maintained at 37°C in a 5 % CO₂ humidified atmosphere. Deferoxamine was dissolved in iron-free RPMI culture medium and added at the initiation of culture at different concentrations (1-10 µM). Colonies were counted at 7 days using an inverted microscope. A cluster of more than 20 cells was defined as a colony. Individual colonies were plucked from culture plates spread on glass slides and morphologically assessed after preparation with Wright's stain and non-specific esterase in the presence of fluoride (29). The self renewal capacity of cells was assessed according to McCulloch et al (30). RPMI-1640 medium was added to culture dishes for 2 hrs; the contents of each dish were then transferred into a tube, centrifuged and washed with medium three times. Cells from each dish were counted separately, and viability was assessed by trypan blue dye exclusion. Cells (1x10⁴/ml) from each dish were recultured in 0.8 % methylcellulose as before. […]
Cultures were evaluated at day 6 using an inverted microscope (100 x magnification). A cluster of more than 20 cells was determined as a colony.

L-1210 tumour cells = test: L-1210 tumour growth in mice; assay type: in vivo; details: day 8
Experimental: One hour prior to kill on day 8 the mice received one ip injection of 0.002 mCi of 3H-thymidine per g body weight. Cells were harvested from the peritoneal cavity, the volume of ascites measured and the cell counts determined in a coulter counter, after lysis of red cells with zap-oglobin, for calculation of total tumour cell numbers. Also, of each sample cell smears were done, Feulgen stained and autoradiographed, whereby the number and percentage of labelled cells was determined and used as a measure for proliferating cells.

HL-60 cells [2] = test: Colony growth of HL-60 cells; assay type: cell-based, human; details: concentration of 10 µm
Experimental: HL-60 cells, a promyeloctic leukemia cell line originally developed by Dr. R. Gallo, NIH, were used. Cells were grown in RPMI supplemented with 10 % heat inactivated fetal calf serum (FCS, Flow Laboratories, Rockville, MO) and 2 mM glutamine (Gibco, Berkely, CA), at densities ranging from 1-2 x 10⁵/ml to 1-10⁶/ml, in a 5 % CO₂ humidified atmosphere at 37°C.
HL-60 cells (10⁴/ml) were plated in 0.8 % methycellulose in RPMI-1640 medium supplemented with 20 % heat inactivated (56°C, 30 min) fetal calf serum at a final volume of 1 ml/culture plate. Cultures were set up in duplicates and maintained at 37°C in a 5 % CO₂ humidified atmosphere. Deferoxamine was dissolved in iron-free RPMI culture medium and added at the initiation of culture at different concentrations (1-10 µM). Colonies were counted at 7 days using an inverted microscope. A cluster of more than 20 cells was defined as a colony. Individual colonies were plucked from culture plates spread on glass slides and morphologically assessed after preparation with Wright's stain and non-specific esterase in the presence of fluoride (29). The self renewal capacity of cells was assessed according to McCulloch et al (30). RPMI-1640 medium was added to culture dishes for 2 hrs; the contents of each dish were then transferred into a tube, centrifuged and washed with medium three times. Cells from each dish were counted separately, and viability was assessed by trypan blue dye exclusion. Cells (1x10⁴/ml) from each dish were recultured in 0.8 % methylcellulose as before.

[3] = DFO 400 mg/kg/d s.c. minipump from day 2, Ara-C 200 mg/kg once ip on day 6

CCC(Cc1cnc2nc(N)nc(N)c2n1)c1ccc(C(=O)N[C@@H](CCC(=O)O)C(=O)O)cc1 (stereo partly drawn) [10-EDAM, N-[4-[1-(2,4-Diamino-6-pteridinyl)but-2-yl]-benzoyl]-L-glutamic acid]
Number of lung metastases % of control (Lewis lung carcinoma; group 4: 10-EDAM 3 mg/kg s.c.): 66% | Number of lung metastases x̄ ± SD (Lewis lung carcinoma; group 4: 10-EDAM 3 mg/kg s.c.): 44 ± 18 | Tumour weight % of control (Lewis lung carcinoma; group 4: 10-EDAM 3 mg/kg s.c.): 91% | Tumour weight x̄ ± SD (Lewis lung carcinoma; group 4: 10-EDAM 3 mg/kg s.c.): 6.87 ± 0.47 g | Number of lung metastases % of control (Lewis lung carcinoma; group 5: 10-EDAM 6 mg/kg s.c.): 34% | Number of lung metastases x̄ ± SD (Lewis lung carcinoma; group 5: 10-EDAM 6 mg/kg s.c.): 23 ± 10 | Tumour weight % of control (Lewis lung carcinoma; group 5: 10-EDAM 6 mg/kg s.c.): 89% | Tumour weight x̄ ± SD (Lewis lung carcinoma; group 5: 10-EDAM 6 mg/kg s.c.): 6.70 ± 1.06 g

Nc1ccn([C@@H]2O[C@H](CO)[C@@H](O)[C@@H]2O)c(=O)n1 [Ara-C, 1-β-D-arabinofuranosyl-cytosine]
HL-60 colony growth (HL-60 cells [1]): inhibited colony growth in a dose-dependent manner | proportions of proliferating cells (L-1210 tumour cells; 3H-thymidine labelled cells, same doses as Table 12): 26 % ± 6% | Number of cells in the peritoneal cavity % of control (L-1210 tumour cells; [3]): 30% | Number of cells in the peritoneal cavity x̄ ± SD (L-1210 tumour cells; [3]): 1.11 ± 0.40 * 10^8 | Number of proliferating cells in peritoneal cavity % of control (L-1210 tumour cells; [3]): 24% | Number of proliferating cells in peritoneal cavity x̄ ± SD (L-1210 tumour cells; [3]): 0.29 ± 0.10 * 10^8

CC(=O)N([O-])CCCCCNC(=O)CCC(=O)N([O-])CCCCCNC(=O)CCC(=O)N([O-])CCCCCN.[Fe+3] [Ferrioxamine]
colony formation (HL-60 cells [2]): did not affect colony formation

CN(Cc1cnc2nc(N)nc(N)c2n1)c1ccc(C(=O)N[C@@H](CCC(=O)O)C(=O)O)cc1 [methotrexate, L-(+)-N-[4-N-(2,4-diamino-6-pteridinyl)-methyl-N-methyl-amino]-benzoyl-L-glutamic acid]
HL-60 colony growth (HL-60 cells [1]): dose-dependent growth inhibitory effect
